{
  "source": "patent US20160106439A1",
  "about": "“PNEUMATIC TOURNIQUET” (BIONUMERIK PHARMACEUTICALS, INC., priority 2013, published 2016)",
  "key": {"[1]": {"molecular_target": "T1, Recombinant human peroxiredoxin 1 (Homo sapiens, UniProt Q06830)", "T1 construct": "purchased SigmaAldrich", "T1 sequence (Q06830 1-199)": "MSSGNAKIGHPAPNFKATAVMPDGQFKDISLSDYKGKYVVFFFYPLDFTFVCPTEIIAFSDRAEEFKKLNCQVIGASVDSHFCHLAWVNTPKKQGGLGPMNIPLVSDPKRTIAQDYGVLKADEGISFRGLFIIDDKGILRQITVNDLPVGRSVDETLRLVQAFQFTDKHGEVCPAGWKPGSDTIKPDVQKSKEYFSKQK", "experiment": "Tavocept-derived mesna adducts on Prx 1 (digest, LC-MS)", "format": "binding", "description": "Recombinant human peroxiredoxin 1 (purchased from SigmaAldrich; 333 μg; 0.015 micromoles) was reduced using an excess of dithiothreitol (DTT; 35 micromoles) in NH4HCO3 buffer (40 mM, pH 8.0) at 37° C. for 50 minutes (total reaction volume was 750 μL; final Prx concentration was 20 μM; and final DTT concentration was 46 mM). […] (total reaction volume was 500 μL). After 16-18 hours incubation, each reaction was removed and chromatographed using G25 Sephadex columns.\nIn brief, the G25 chromatographed Prx1 incubation reactions were digested with Trypsin Gold. Trypsin Gold was dissolved in 400 μL of NH4HCO3 and 100 μL of acetonitrile. A 100-150 μL volume of this Trypsin Gold stock was then added to 500 μL of the aforementioned final sample with 75 μL of acetonitrile and then the reaction volume was adjusted to a total of 750 μL with NH4HCO3. The sample was incubated for 6 hours at 37° C. Chymotrypsin digests were by dissolving chymotrypsin in 1M HCL. A 50 μL volume of this chymotrypsin stock solution was added to added to 500 μL of the aforementioned final sample along with 10% (v/v) of CaCl2 (100 mM stock). NH4HCO3 buffer was then added to bring the total reaction volume to 750 μL. Chymotrypsin digests were incubated for 16 hours at 30° C. Following digest by either trypsin or chymotrypsin, reactions were lyophilized to dryness overnight and then resuspended in a minimal amount of HPLC grade water prior to LC MS analyses.\nA Symmetry C18 HPLC column (Waters, Franklin, Mass.; 3.5 μm; 4.6×75 mm) and a Waters Alliance liquid chromatography system (Waters 2695; Franklin, Mass.) coupled to a Micromass single quadropole mass detector (Micromass ZMD; Manchester, UK) were used to analyze fragments from trypsin or chymotrypsin digested human Prx1. The mobile phase contained 0.1% of formic acid throughout the run and the flow rate was 0.35 ml/min. […]"}, "recombinant human MET": {"molecular_target": "recombinant human MET (Homo sapiens, UniProt P08581)", "sequence (P08581 956-1390 limits assumed)": "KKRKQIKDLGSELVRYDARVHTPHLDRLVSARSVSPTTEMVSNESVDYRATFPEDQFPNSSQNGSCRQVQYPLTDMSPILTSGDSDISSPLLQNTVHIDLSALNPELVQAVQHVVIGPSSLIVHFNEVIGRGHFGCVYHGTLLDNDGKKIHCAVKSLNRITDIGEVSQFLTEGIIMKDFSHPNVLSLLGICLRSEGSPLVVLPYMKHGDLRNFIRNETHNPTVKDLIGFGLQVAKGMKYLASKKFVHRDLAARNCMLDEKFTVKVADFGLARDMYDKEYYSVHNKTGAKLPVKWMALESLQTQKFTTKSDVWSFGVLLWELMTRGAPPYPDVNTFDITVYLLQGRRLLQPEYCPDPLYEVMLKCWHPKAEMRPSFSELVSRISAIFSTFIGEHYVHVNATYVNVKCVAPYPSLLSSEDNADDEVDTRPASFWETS", "experiment": "biochemical", "description": "The substrate that was phosphorylated by the kinase, polyglutamate-tyrosine (PolyGT), was purchased from SignalChem (Cat. #P61-58, lot #R098-4).\nAll other reagents were purchased from Sigma Aldrich. A Tecan Ultra microplate reader with XFluor4 software (Tecan, V4.51) and RdrOle software (Tecan, V4.50) were used in this study.\nMET phosphorylated the polyGT substrate using the ATP cofactor and produced ADP. […] For most assays, a stock of ATP (1 mM) and PolyGT (1 mg/mL) was used. […] The reactions, in microplate, were incubated for 60 minutes at 25° C. on a heat block. Following this 60 minute incubation, the kinase activity was evaluated using the ADP-Glo system from Promega that monitored ADP produced when MET phosphorylated the PolyGT substrate.\nKinase assays were run in triplicate or quadruplicate in microplates. Following this, the ADP-Glo detection system (Promega) was used to determine how much ADP had been produced. For 10 μL volume assays, to each microplate well containing 10 μL of kinase reaction was added ADP-Glo reagent (10 μL), plates were spun in a table top centrifuge (1000 rpm (123×g) for 1 minute) to ensure no reagent remained on the well walls, and then agitated for 1 minute to ensure optimal mixing. Plates were incubated at 25 C on a heat block for 40 minutes. Next, kinase detection reagent (20 μL) was added and, as above, centrifugation and agitation were repeated; plates were allowed to incubate at 25° C. on a heat block for 30 minutes. Following the incubation of the kinase detection reagent, plates were read on a Tecan Ultra microplate reader. The Tecan Ultra contained a built-in plate definition file for the whole area 96-well white Corning plates but a plate definition file for the half area 96-well Corning plates was created using the RdrOle component of the Tecan Ultra software.\nKinases vary in their ability to turnover ATP in vitro; therefore, the activity of the MET over a concentration range from 0.78 ng to 20 ng was evaluated in assay volumes of 10 μL. See, FIG. 7.\nTherefore, each mole of polymer of 20,000 g/mole would contain approximately 28 moles of the glu-glu-glu-glu-tyr “subpolymer” in a 10 μL assay volume containing 1 μg of the polyGT substrate. […] This was a vast excess of possible tyrosine phosphorylation sites, ensuring that the substrate for phosphorylation was not rate limiting (assuming the higher mass range would produce an even larger excess of glu-glu-glu-glu-tyr “subpolymers”).\nData from MET assays run on the Tecan Ultra microplate spectrophotometer were collected in Microsoft Excel. Error calculations and graphical representations were performed in Microsoft Office Excel (Microsoft Corporation, Redmond, Wash., USA). Determination of IC25 and IC50 values were accomplished using Origin Lab software (OriginLab Corporation, Northampton, Mass., USA)."}, "Recombinant human Trx": {"molecular_target": "T2, Recombinant human Trx (Homo sapiens, UniProt P10599)", "T2 sequence (P10599 1-105)": "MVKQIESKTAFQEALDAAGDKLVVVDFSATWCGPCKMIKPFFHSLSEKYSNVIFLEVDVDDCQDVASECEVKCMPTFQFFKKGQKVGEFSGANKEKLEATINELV", "experiment": "IEF PAGE of Trx incubated with Tavocept", "format": "binding", "design": "purchased Sigma (SigmaAldrich); host or cells: E. coli", "settings": "Tavocept 10 mM, 37° C."}},
  "note": "Where two headings read alike, the source gives them in different places.",
  "data": [
    {"smiles": "O=S(=O)([O-])CCSSCCS(=O)(=O)[O-].[Na+].[Na+]", "note": "[Tavocept, disodium 2,2′-dithio-bis-ethane sulfonate]", "values": [
      {"measurement": "Tavocept-derived mesna Adduct detected?", "setting": "[1]; chymotryptic fragment TDKHGEVCPAGW (Cys 173) of human Prx 1", "result": "Yes"},
      {"measurement": "Tavocept-derived mesna Adduct detected?", "setting": "[1]; chymotryptic fragment VCPTEIIAF (Cys 52) of human Prx 1", "result": "Yes"},
      {"measurement": "Tavocept-derived mesna Adduct detected?", "setting": "[1]; tryptic fragment HGEVCPAGWK (Cys 173) of human Prx 1", "result": "Yes"},
      {"measurement": "greater inhibition of MET than Staurosporine alone", "setting": "recombinant human MET; 10 μM ATP, MET 0.1 ng/μL, 5 mM Tavocept + 100 nM Staurosporine", "result": 22, "unit": "%"},
      {"measurement": "greater inhibition of MET than Staurosporine alone", "setting": "recombinant human MET; 10 μM ATP, MET 0.1 ng/μL, 5 mM Tavocept + 300 nM Staurosporine", "result": 8, "unit": "%"},
      {"measurement": "greater inhibition of MET than Staurosporine alone", "setting": "recombinant human MET; 10 μM ATP, MET 0.1 ng/μL, 10 mM Tavocept + 100 nM Staurosporine", "result": 23, "unit": "%"},
      {"measurement": "greater inhibition of MET than Staurosporine alone", "setting": "recombinant human MET; 10 μM ATP, MET 0.1 ng/μL, 10 mM Tavocept + 300 nM Staurosporine", "result": 8, "unit": "%"},
      {"measurement": "IC50", "setting": "recombinant human MET; IC50, MET 2.5 ng/μL, ATP 100 μM", "result": "> 40", "unit": "mM"},
      {"measurement": "IC50", "setting": "recombinant human MET; IC50 on MET, 10 μM ATP, 0.1 ng/μL MET", "result": "15.2 ± 0.36", "unit": "mM"},
      {"measurement": "IC50", "setting": "recombinant human MET; IC50 on MET, 10 μM ATP, 2.5 ng/μL MET, single experiment", "result": 17.4, "unit": "mM"},
      {"measurement": "IC50", "setting": "recombinant human MET; IC50 on MET, 100 μM ATP, 0.1 ng/μL MET, single experiment", "result": 37.1, "unit": "mM"},
      {"measurement": "IC50", "setting": "recombinant human MET; IC50 on MET, 100 μM ATP, 2.5 ng/μL MET", "result": "> 40", "unit": "mM"},
      {"measurement": "inhibition at 5000 µM", "setting": "recombinant human MET; read-out: greater inhibition of MET than Crizotinib alone, 10 μM ATP, MET 0.1 ng/μL, 5 mM Tavocept + 20 nM Crizotinib", "result": 10, "unit": "%"},
      {"measurement": "inhibition at 5000 µM", "setting": "recombinant human MET; read-out: greater inhibition of MET than Crizotinib alone, 10 μM ATP, MET 0.1 ng/μL, 5 mM Tavocept + 40 nM Crizotinib", "result": 6, "unit": "%"},
      {"measurement": "inhibition at 10000 µM", "setting": "recombinant human MET; read-out: greater inhibition of MET than Crizotinib alone, 10 μM ATP, MET 0.1 ng/μL, 10 mM Tavocept + 20 nM Crizotinib", "result": 16, "unit": "%"},
      {"measurement": "inhibition at 10000 µM", "setting": "recombinant human MET; read-out: greater inhibition of MET than Crizotinib alone, 10 μM ATP, MET 0.1 ng/μL, 10 mM Tavocept + 40 nM Crizotinib", "result": 11, "unit": "%"},
      {"measurement": "inhibition at 5000 µM", "setting": "recombinant human MET; read-out: greater inhibition of MET than Crizotinib alone, 100 μM ATP, MET 2.5 ng/μL, 5 mM Tavocept + 45 nM Crizotinib", "result": 15, "unit": "%"},
      {"measurement": "inhibition at 5000 µM", "setting": "recombinant human MET; read-out: greater inhibition of MET than Crizotinib alone, 100 μM ATP, MET 2.5 ng/μL, 5 mM Tavocept + 90 nM Crizotinib", "result": 10, "unit": "%"},
      {"measurement": "inhibition at 10000 µM", "setting": "recombinant human MET; read-out: greater inhibition of MET than Crizotinib alone, 100 μM ATP, MET 2.5 ng/μL, 10 mM Tavocept + 45 nM Crizotinib", "result": 14, "unit": "%"},
      {"measurement": "inhibition at 10000 µM", "setting": "recombinant human MET; read-out: greater inhibition of MET than Crizotinib alone, 100 μM ATP, MET 2.5 ng/μL, 10 mM Tavocept + 90 nM Crizotinib", "result": 10, "unit": "%"},
      {"measurement": "inhibition at 5000 µM", "setting": "recombinant human MET; read-out: greater inhibition of MET than Staurosporine alone, 10 μM ATP, MET 0.1 ng/μL, 5 mM Tavocept + 100 nM Staurosporine", "result": 22, "unit": "%"},
      {"measurement": "inhibition at 5000 µM", "setting": "recombinant human MET; read-out: greater inhibition of MET than Staurosporine alone, 10 μM ATP, MET 0.1 ng/μL, 5 mM Tavocept + 300 nM Staurosporine", "result": 8, "unit": "%"},
      {"measurement": "inhibition at 10000 µM", "setting": "recombinant human MET; read-out: greater inhibition of MET than Staurosporine alone, 10 μM ATP, MET 0.1 ng/μL, 10 mM Tavocept + 100 nM Staurosporine", "result": 23, "unit": "%"},
      {"measurement": "inhibition at 10000 µM", "setting": "recombinant human MET; read-out: greater inhibition of MET than Staurosporine alone, 10 μM ATP, MET 0.1 ng/μL, 10 mM Tavocept + 300 nM Staurosporine", "result": 8, "unit": "%"},
      {"measurement": "Trx migration on IEF gel", "setting": "Recombinant human Trx", "result": "shift in Trx migration"}
    ]}
  ]
}
